{
  "source": "patent US20240285594A1",
  "about": "“COMPOSITIONS AND METHODS FOR TREATING PAIN IN ANIMALS” (North Carolina State University, priority 2023, published 2024)",
  "key": {"[1]": {"settings": "cited from earlier work; for mitigation of pain associated with castration (and tail docking): earlier published studies in pigs, route as in the sentence"}, "in vivo": {"assay": "in vivo", "settings": "female, Yorkshire cross, pig, plasma, 2.2 mg/kg", "procedure": "Six female Yorkshire cross grower pigs approximately 8 weeks of age with no history of flunixin administration in a 30-day period were sourced from a production farm and enrolled in the study. The pigs were determined to be healthy by veterinary physical examination and pigs initially weighed between 18.0-22.0 kg. The pigs were individually housed in climate-controlled rooms with a 12:12 light dark cycle at the North Carolina State University College of Veterinary Medicine to prevent cross contamination between pigs and damage to jugular catheters. The pens had non-slip flooring, allowed the pigs to move freely, provided enrichment, and were cleaned at least twice daily. The pigs had ad libitum access to water via a nipple drinker and were fed 0.5 quarts of Nature's Match twice daily. […] From the time of arrival until the end of the study, the pigs were monitored at least twice daily for general appearance, attitude, appetite, and wellbeing.\nTo facilitate jugular catheter placement, the pigs were sedated with Telazol®, reconstituted with ketamine and xylazine as previously described, intubated, and maintained on gas isoflurane anesthesia. A 22-gauge, 10 cm intravenous catheter (MILA, International, Inc., Florence, KY, USA) was placed into the jugular vein using sterile technique. It was sutured in place with 3-0 nylon and covered in Ioban™ (3M, St. Paul, MN, USA) to prevent damage. The pigs wore custom jackets throughout the study to protect the catheters and an extension set was attached to allow for easy catheter access and restraint-free blood collection.\nAll pigs were randomized to determine the first administration route. Group 1 (n=3 pigs) and Group 2 (n=3 pigs) were used in a cross-over design and received 2.2 mg/kg flunixin (Banamine®-S, Merck Animal Health, Madison, NJ, USA) by either the IM or IN route. Following a 5-day washout period, the pigs were administered 2.2 mg/kg flunixin via the opposite route. IN administration was completed using a MAD600 MADgic laryngo-tracheal mucosal atomization device (Teleflex Medical, Morrisville, NC, USA). The luer lock syringe was attached to this device and drug was placed into the nostril. Before administration, 0.22 mL of the drug was added to the device to account for dead space volume. After the IN dose, pigs were encouraged to keep their heads raised for approximately 10 seconds to prevent leakage of the drug out of the nasal cavity. Intramuscular administration was performed in the omotransversarius muscle using a 20G needle.\nBlood samples were collected at 0 (pre-treatment), 0.16, 0.33, 0.5, 0.75, 1, 1.5, 2, 3, 4, 6, 8, 12, 18, 24, 36, 48, and 60 hours post treatment. To avoid heparin contamination in samples, at least 1 mL of blood was collected as a purge sample before 1-2 mL of blood was collected and placed into lithium heparin tubes (BD Vacutainer, Franklin Lakes, NJ, USA). The purge blood was injected back into the catheter before the catheter was flushed with 3-4 mL of heparinized saline to prevent coagulation. The blood tubes were placed on ice for no more than 1 hour before they were processed. Plasma was separated by centrifugation at 3500×g for 10 minutes at 4° C., equally split between two cryovials, mixed, and stored at −80° C. until analysis.\nTo prepare samples, 100 μL of plasma was pipetted into a clean borosilicate glass tube (disposable culture tubes, CWR). To pretreat the plasma, 500 μL of 4% phosphoric acid prepared in water was added to each tube. Solid phase extraction was performed on an oasis prime HLB 96 well μElution plate (Waters Corporation, Milford, MA, USA). The plate was prepared by conditioning the plate with 500 μL of methanol followed by 500 μL of ultrapure water."}, "[2]": {"assay": "Pilot pharmacokinetic study of intranasal flunixin, three catheter sites", "format": "in vivo", "settings": "female, Yorkshire cross, plasma, inhaled or intranasal, 3.0 mg/kg IN, one grower pig; for AUC / Cmax: pig, 3 mg/kg; for AUC: read-out: area under the curve (AUC) (converted); for Cmax: read-out: peak concentration (Cmax)", "from_the_text": "A pilot study in one animal was initially performed to compare jugular venous drug concentrations to those of other sites (femoral artery and auricular artery), as there was concern that drainage of the nasal sinus would produce higher concentrations of flunixin in the blood collected from the jugular vein.\nThe pilot study involved one female Yorkshire cross grower pig sourced from a production farm weighing 25.3 kg. The pig was sedated with IM Telazol®, ketamine, and xylazine (TKX). The Telazol® was reconstituted with ketamine (250 mg; 2.5 mL) and xylazine (250 mg; 2.5 mL; Dechra Veterinary Products, Overland Park, KS, USA) and administered IM at a dose of 0.03 mL/kg (1.5 mg/kg) for each medication before being intubated and maintained on isoflurane anesthesia. A femoral arterial catheter, jugular venous catheter, and auricular arterial catheter were placed using sterile technique. […] A higher dose than the label dose was chosen to ensure that the drug would be detectable since this study's purpose was to determine an appropriate catheter site. Using an intranasal mucosal atomization device (MAD) (Teleflex, Morrisville, NC, USA) with 1 mL luer lock syringe, each nostril was infused with 0.75 mL (37.5 mg) of flunixin to administer a total of 1.5 mL (75 mg). Plasma samples were collected from each catheter site at pre-treatment (blank), 0.08, 0.25, 0.5, 0.85, 1, 1.5, 2, 2.5, and 3 hours post-treatment and analyzed using ultra performance liquid chromatography and tandem mass spectrometry (UPLC-MS/MS) to determine flunixin concentrations. A non-compartmental pharmacokinetic analysis was then performed."}, "[3]": {"assay": "UPAPS behavioral pain scoring and rescue analgesia after castration (Part II)", "format": "in vivo, piglets", "settings": "-1 h, 0 h and +3 h relative to castration; compared to C (saline); listed as FM", "method": "Behavior scoring was obtained in real-time by observing each piglet for 4-min continuously using Unesp-Botucatu pig acute pain scale (UPAPS). Each piglet was scored by one trained observer at the following timepoints: 1 h before castration (−1 h), immediately post-castration (0 h), and 3 h post-castration (+3 h, FIG. 3). The 4-min sampling time was obtained from the methodology previously validated. Treatments were masked, randomized, and applied to each piglet by a senior researcher. The Unesp-Botucatu UPAPS scale evaluates five behavioral items, with each item divided into four descriptive levels. A numerical score was designated from “0” to “3”, with a “0” representing normal behavior (free of pain) and “3” corresponding to pronounced behavioral deviation (severe pain). Therefore, for each timepoint, piglets may receive a score ranging from 0 (min) to 15 (max; Table 3). Total pain scores were then calculated for each piglet per timepoint. […] This is most referred to rescue analgesia in the literature; and was conducted for each behavioral assessment. Total counts were calculated for piglets identified as requiring or not requiring rescue analgesia by treatment and timepoint. […]"}},
  "note": "Entries after “also recorded” stand apart in the source; their conditions may differ. Where two headings read alike, the source gives them in different places.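 Wherever F is given: grower pigs about 8 weeks old weighing 18.0-22.0 kg, randomized cross-over of both routes separated by a 5-day washout, blood taken via jugular vein catheter.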",
  "data": [
    {"smiles": "Cc1c(Nc2ncccc2C(=O)O)cccc1C(F)(F)F", "note": "[flunixin meglumine]", "values": [
      {"measurement": "numerical decrease of cortisol concentrations", "setting": "[1]; FM topically 24 h prior to castration vs saline-treated piglets, not significant", "result": "more than 30%"},
      {"measurement": "mitigation of pain associated with castration (and tail docking)", "setting": "[1]", "result": "effective"},
      {"measurement": "mitigation of pain associated with castration (and tail docking)", "setting": "[1]; listed as flunixin", "result": "more effective; also recorded: superior"},
      {"measurement": "total pain scores", "setting": "[1]; immediately post castration, transdermal flunixin treated piglets, castrated piglets 4.9, video observation", "result": 3.1},
      {"measurement": "cortisol concentrations", "setting": "[1]; intramuscular FM, 2 h post-castration, vs castrated non-treated control, Nixon 2021", "result": "decreased cortisol concentrations"},
      {"measurement": "rescue analgesia intervention", "setting": "[1]; transdermal FM 24 h before castration, control pigs 54%", "result": 29, "unit": "%"},
      {"measurement": "AUC(0-inf)", "setting": "in vivo; im", "result": 6900, "unit": "ng·h/mL"},
      {"measurement": "AUC(0-t)", "setting": "in vivo; im", "result": 6900, "unit": "ng·h/mL"},
      {"measurement": "CL/F", "setting": "in vivo; im", "result": 5, "unit": "mL/min/kg"},
      {"measurement": "Cmax", "setting": "in vivo; im", "result": 4000, "unit": "ng/mL"},
      {"measurement": "Tmax", "setting": "in vivo; im", "result": 12, "unit": "min"},
      {"measurement": "Vd/F", "setting": "in vivo; im", "result": 3.2, "unit": "L/kg"},
      {"measurement": "AUC(0-t)", "setting": "in vivo; inhaled or intranasal", "result": 4800, "unit": "ng·h/mL"},
      {"measurement": "CL/F", "setting": "in vivo; inhaled or intranasal", "result": 8.33, "unit": "mL/min/kg"},
      {"measurement": "Cmax", "setting": "in vivo; inhaled or intranasal", "result": 2700, "unit": "ng/mL"},
      {"measurement": "Tmax", "setting": "in vivo; inhaled or intranasal", "result": 12, "unit": "min"},
      {"measurement": "Vd/F", "setting": "in vivo; inhaled or intranasal", "result": 5.4, "unit": "L/kg"},
      {"measurement": "bioavailability", "setting": "in vivo; other: intranasal", "result": 88.5, "unit": "%"},
      {"measurement": "AUC", "setting": "[2]; auricular artery", "result": 12800, "unit": "ng·h/mL"},
      {"measurement": "Cmax", "setting": "[2]; auricular artery", "result": 6000, "unit": "ng/mL"},
      {"measurement": "AUC", "setting": "[2]; femoral artery", "result": 12300, "unit": "ng·h/mL"},
      {"measurement": "Cmax", "setting": "[2]; femoral artery", "result": 5170, "unit": "ng/mL"},
      {"measurement": "AUC", "setting": "[2]; jugular vein", "result": 12800, "unit": "ng·h/mL"},
      {"measurement": "Cmax", "setting": "[2]; jugular vein", "result": 6820, "unit": "ng/mL"},
      {"measurement": "Tmax", "setting": "[2]; all catheter sites, read-out: time to peak concentration (Tmax)", "result": 15, "unit": "min"},
      {"measurement": "total UPAPS scores", "setting": "[3]", "result": "did not decrease; also recorded: behavioral differences were not noted"}
    ]}
  ]
}
